The IC50 is the midpoint of a concentration-inhibition curve.

Our source for the IC50 values is patent US20260137697A1, “THIAZOLO[5,4-D]PYRIMIDINE COMPOUNDS, COMPOSITIONS COMPRISING THEM AND USES THEREOF” (University de Montreal, priority 2022, published 2026).

For this assay, the target named is T1, ARAF (Homo sapiens, UniProt P10398).
T1 construct: ARAF kinase reactions were rigorously the same with the exception that kinase concentration was raised to 3.75 nM (cat. No. 1768-0000-1; Reaction Biology)
T1 sequence (P10398 303-606 limits assumed): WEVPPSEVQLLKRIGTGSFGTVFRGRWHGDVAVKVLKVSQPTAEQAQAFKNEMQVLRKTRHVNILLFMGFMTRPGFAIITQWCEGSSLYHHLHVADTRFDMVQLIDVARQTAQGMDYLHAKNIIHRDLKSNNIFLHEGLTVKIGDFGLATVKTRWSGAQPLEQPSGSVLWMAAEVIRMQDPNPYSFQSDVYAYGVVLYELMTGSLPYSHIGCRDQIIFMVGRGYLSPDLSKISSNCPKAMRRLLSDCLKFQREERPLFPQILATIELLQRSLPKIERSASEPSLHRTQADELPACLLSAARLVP
The assay is described as follows: ARAF kinase activity assay (AlphaLISA p-MEK 1/2). The assay is classed as biochemical. As to conditions: Table A; 10 μM ATP, kinase-dead MEK1 substrate. Here is the method: Compound preparation: solid samples of each substance in 1dram vials were suspended in DMSO (Fisher Scientific) at a stock concentration of 20 mM. Stocks were kept at −20° C. and protected from light. If solubility of the compound at 20 mM appeared to be an issue, the initial concentration of the DMSO stock was changed to 10 mM or 5 mM.
In vitro enzymatic reactions were used for evaluating compounds intrinsic activity against BRAF, CRAF and ARAF. For BRAF and CRAF, 0.375 nM of purified GST-tagged kinases (cat. No. B4062-10UG and cat. No. R1656-10UG respectively from Millipore Sigma) were incubated with 75 nM of kinase-dead MEK1 substrate (cat. No. 40075; BPS Bioscience) in the presence of 10 μM of Ultrapure ATP (cat. No. V9102; Promega; part V915A) with and without the test compound in a buffer containing 50 mM HEPES pH 7.5, 10 mM MgCl2, 1 mM EDTA, 0.01% Brij-35 and 2 mM DTT. Separate reactions were performed with the MEK1 substrate and ATP as a blank control. ARAF kinase reactions were rigorously the same with the exception that kinase concentration was raised to 3.75 nM (cat. No. 1768-0000-1; Reaction Biology).
For compound treatment, 5 μL/well of test substance solution are placed in a 384-well proxyplate (Perkin Elmer) and mixed with 2× concentrated kinase reactions. The dilution series is selected so that nine concentrations cover a range from 100 nM to 0.01 nM. […] The final concentration of DMSO in the assay is set at 0.05%.
ARAF kinase reactions were carried out for a total of 2 hours at 30° C. and then stopped by addition of EDTA at a final concentration of 40 mM. Reactions were then detected using the AlphaLISA® SureFire® Ultra™ p-MEK 1/2 (Ser218/222) (PerkinElmer) kit. Reactions were performed with 5 μL of kinase reaction according to the manufacturer's specifications in 384-well proxyplates (Perkin Elmer) followed by overnight incubation of the AlphaLISA® reactions at room temperature in a humidified chamber. After completion of the detection reactions, the signals were recorded on a Synergy Neo2 plate reader (Biotek) equipped with AlphaLISA® filters. The effect of each compound dilution on the pMEK signal generated by ARAF reactions was expressed in % inhibition and calculated as follows. An internal 100% inhibition control (average of luminescence in kinase reactions comprising kinase dead MEK1 substrate alone) was included in each plate to measure of pMEK background and was subtracted from each data point. The average of DMSO (vehicle) controls (set as 0% inhibition) was also established and used to calculate % inhibition:
IC50 values were obtained by plotting the kinase inhibition values and fitting the dose-activity curves using a log(agonist) versus response—variable slope (four parameters) function using either GraphPadPrism (V7.0) or Dotmatics Screening Ultra platform. Standards included in the ARAF kinase assay were Belvarafenib (MedChem Express cat. No. HY-109080; CAS No. 1446113-23-0), LXH254 (MedChem Express cat. No. HY-112089; CAS No. 1800398-38-2) and BGB283 (cat. No. HY-18957; CAS No. 1446090-79-4).
Consider `Cc1ccc2c(Nc3cccc(Cl)c3F)nccc2c1NC(=O)c1csc2c(N)ncnc12` [Belvarafenib, reference compound], for which the concentration for half-maximal inhibition (IC50) is above 10 nM. As for `Cc1c(F)cccc1S(=O)(=O)Nc1ccc(F)c(Nc2ncnc3sc(-n4cc(C(=O)N5C6CCC5CN(C)C6)c5ccccc54)nc23)c1F` [Example 44], the half-maximal inhibitory concentration (IC50) was 1 to 10 nM.

For the compound `N#CC1(c2cccc3c2ncn3-c2nc3c(Nc4c(F)ccc(NS(=O)(=O)c5cccc(Cl)c5Cl)c4F)ncnc3s2)CC1` [Example 122], the IC50 lay in the range of 1 to 10 nM.
